Test results reported in article PMC6233306 (Bioorganic & medicinal chemistry letters, 2018).
In brackets after ≈: the same amount, converted by molar mass.

Key:
[1] = Chemical stability of coumarin core towards organic bases; assay type: physicochemical; conditions: prolonged time at ambient temperature; gives equimolar ring-opened product 5
Mtb H37Rv = Mtb H37Rv growth inhibition; assay type: cell-based, Mycobacterium tuberculosis; conditions: for MIC90: Mycobacterium tuberculosis, H37RV, read-out: Mtb H37Rv MIC90; for MICs: in words
[2] = Kinetic aqueous solubility; assay type: physicochemical; conditions: pH 7.4, water, kinetic from dmso stock

SMILES | MIC90 (Mtb H37Rv) | further results
Cc1cc2oc(=O)cc(-c3ccc(F)cc3)c2c(C)c1-c1ccc(CN2CCOCC2)cc1 [Compound 4] | – | stability towards organic bases such as morpholine [1]: not stable
Cc1cc2nccc(-c3ccccc3)c2c(C)c1-c1ccc(CN2CCOCC2)cc1 [Compound 8] | 0.45 µM (≈ 0.184 µg/mL) | –
Cc1cc2nccc(-c3ccccc3Cl)c2c(C)c1-c1ccc(CN2CCOCC2)cc1 [Compound 15a] | 0.3 µM (≈ 0.133 µg/mL) | –
Cc1cc2nccc(-c3cccc(Cl)c3)c2c(C)c1-c1ccc(CN2CCOCC2)cc1 [Compound 15b] | 1.5 µM (≈ 0.664 µg/mL) | –
Cc1cc2nccc(-c3ccc(Cl)cc3)c2c(C)c1-c1ccc(CN2CCOCC2)cc1 [Compound 15c] | > 80 µM | –
Cc1cc2nccc(-c3ccccc3C#N)c2c(C)c1-c1ccc(CN2CCOCC2)cc1 [Compound 15d] | 2.5 µM (≈ 1.08 µg/mL) | –
CCc1ccccc1CNc1ccnc2cc(C)c(-c3ccc(CN4CCOCC4)cc3)c(C)c12 [Compound 15e] | 2.5 µM (≈ 1.16 µg/mL) | –
Cc1cc2nccc(-c3ccccc3C(=O)O)c2c(C)c1-c1ccc(CN2CCOCC2)cc1 [Compound 15f] | 40 µM (≈ 18.1 µg/mL) | –
Cc1cc2nccc(-c3ccccc3C(N)=O)c2c(C)c1-c1ccc(CN2CCOCC2)cc1 [Compound 15g] | 20 µM (≈ 9.03 µg/mL) | –
COc1cccc(-c2ccnc3cc(C)c(-c4ccc(CN5CCOCC5)cc4)c(C)c23)c1Cl [Compound 15h] | 10 µM (≈ 4.73 µg/mL) | –
Cc1cc2nccc(-c3cccnc3)c2c(C)c1-c1ccc(CN2CCOCC2)cc1 [Compound 15j] | – | solubility kinetic [2]: > 150 µM
COc1ccncc1-c1ccnc2cc(C)c(-c3ccc(CN4CCOCC4)cc3)c(C)c12 [Compound 15k] | 2.5 µM (≈ 1.1 µg/mL) | –
COc1ncccc1-c1ccnc2cc(C)c(-c3ccc(CN4CCOCC4)cc3)c(C)c12 [Compound 15l] | 2.5 µM (≈ 1.1 µg/mL) | –
Cc1cc2nccc(-c3ccnn3C)c2c(C)c1-c1ccc(CN2CCOCC2)cc1 [Compound 15m] | 2.5 µM (≈ 1.03 µg/mL) | solubility kinetic [2]: > 150 µM
Cc1cc2nccc(-c3cncnc3)c2c(C)c1-c1ccc(CN2CCOCC2)cc1 [Compound 15n] | 2.5 µM (≈ 1.03 µg/mL) | solubility kinetic [2]: > 150 µM
Cc1cc2nccc(-c3ccccc3Cl)c2c(C)c1-c1ccncc1 [Compound 15p] | 5 µM (≈ 1.72 µg/mL) | –
CCOC(=O)c1cc(-c2ccccc2Cl)c2c(C)c(-c3ccncc3)c(C)cc2n1 [Compound 18] | 10 µM (≈ 4.17 µg/mL) | –
Cc1cc2nc(CO)cc(-c3ccccc3Cl)c2c(C)c1-c1ccncc1 [Compound 19] | 3.75 µM (≈ 1.41 µg/mL) | –
Cc1cc2nc(C(C)(C)O)cc(-c3ccccc3Cl)c2c(C)c1-c1ccncc1 [Compound 20] | > 40 µM | –
Cc1cc2nc(C(N)=O)cc(-c3ccccc3Cl)c2c(C)c1-c1ccncc1 [Compound 21a] | 1.25 µM (≈ 0.485 µg/mL) | –
CNC(=O)c1cc(-c2ccccc2Cl)c2c(C)c(-c3ccncc3)c(C)cc2n1 [Compound 21b] | 0.8 µM (≈ 0.322 µg/mL) | MICs (Mtb H37Rv): sub-micromolar; CFU reduction (H37Rv; lung, once-daily oral, dose-dependent, up to 50 mg/kg, 8-day acute model): ~4 log CFU; tolerability (H37Rv; mice, up to the highest dose of 50 mg/kg): no tolerability issue observed
Cc1cc2nc(C(=O)NC(C)C)cc(-c3ccccc3Cl)c2c(C)c1-c1ccncc1 [Compound 21c] | 2.5 µM (≈ 1.07 µg/mL) | –
Cc1cc2nc(C(=O)NCCF)cc(-c3ccccc3Cl)c2c(C)c1-c1ccncc1 [Compound 21d] | 1.25 µM (≈ 0.542 µg/mL) | –
Cc1cc2nc(C(=O)NCCO)cc(-c3ccccc3Cl)c2c(C)c1-c1ccncc1 [Compound 21e] | 0.3 µM (≈ 0.13 µg/mL) | MICs (Mtb H37Rv): sub-micromolar
Cc1cc2nc(C(=O)NCCN(C)C)cc(-c3ccccc3Cl)c2c(C)c1-c1ccncc1 [Compound 21f] | 0.3 µM (≈ 0.138 µg/mL) | MICs (Mtb H37Rv): sub-micromolar
Cc1cc2nc(C(=O)N3CCCC3)cc(-c3ccccc3Cl)c2c(C)c1-c1ccncc1 [Compound 23b] | 5 µM (≈ 2.21 µg/mL) | –
